# Tests used:
# Format in all cases: functional
# [1] = test system: CHO; assay: In vitro cytotoxicity against CHO cancer cell lines.; conditions: Cricetulus griseus, read-out: TD50 (the source's name)
# [2] = test system: L1210/Adr; assay: In vitro cytotoxicity against L1210/Adr cancer cell lines.; conditions: Mus musculus, read-out: TD50 (the source's name)
# [3] = test system: KB; assay: In vitro cytotoxicity against KB cancer cell lines.; conditions: Homo sapiens, read-out: TD50 (the source's name)
# [4] = test system: HCT-116; assay: In vitro cytotoxicity against HCT116 cancer cell lines.; conditions: Homo sapiens, read-out: TD50 (the source's name)
# [5] = test system: MCF7; assay: In vitro cytotoxicity against MCF-7 cancer cell lines.; conditions: Homo sapiens, read-out: TD50 (the source's name)
# [6] = test system: L1210; assay: In vitro cytotoxicity against L1210 cancer cell lines.; conditions: Mus musculus, read-out: TD50 (the source's name)
Compound,CC50 [1] [µg/mL],CC50 [2] [µg/mL],CC50 [3] [µg/mL],CC50 [4] [µg/mL],CC50 [5] [µg/mL],CC50 [6] [µg/mL]
CCOC(=O)c1cc(NC2=CC3=NCCc4cn(C)c(c43)C2=O)cn1COC,0.7,1,0.5,0.4,0.5,2
COCn1cc(NC(=O)c2cc(NC(=O)c3cc(NC4=CC5=NCCc6cn(C)c(c65)C4=O)cn3COC)cn2COC)cc1C(=O)NCCCN(C)C,0.9,2.8,0.4,2.1,0.2,3.3
CCOC(=O)c1cc(NC(=O)c2cc(NC(=O)c3cc(NC4=CC5=NCCc6cn(C)c(c65)C4=O)cn3COC)cn2COC)cn1COC,4.9,2.5,1.4,5.2,4.7,1.3
COCn1cc(NC2=CC3=NCCc4cn(C)c(c43)C2=O)cc1C(=O)NCCCN(C)C,49.2,2.5,0.5,5.8,0.4,3.8
COCn1cc(NC(=O)c2cc(NC3=CC4=NCCc5cn(C)c(c54)C3=O)cn2COC)cc1C(=O)NCCCN(C)C,17.5,3.8,1.9,6.1,0.5,8.2
CCOC(=O)c1cc(NC(=O)c2cc(NC3=CC4=NCCc5cn(C)c(c54)C3=O)cn2COC)cn1COC,4.2,3.3,2.3,1.7,3.3,4.9
COc1cccc2c1C(=O)c1c(O)c3c(c(O)c1C2=O)C[C@@](O)(C(=O)CO)C[C@@H]3O[C@H]1C[C@H](N)[C@H](O)[C@H](C)O1 [DOXORUBICIN],0.05,0.3,0.02,0.17,0.2,0.02
